Here are results for five compounds from ChEMBL document CHEMBL1212754, “SmQnr contributes to intrinsic resistance to quinolones in Stenotrophomonas maltophilia” (2010).

Holding throughout (type): functional
Experiment [1] has as its system Stenotrophomonas maltophilia. Kind of experiment: Antibacterial activity against Stenotrophomonas maltophilia MBS101 containing plasmid encoded Smqnr gene by epsilon test.
The test system of experiment [2] is Stenotrophomonas maltophilia. Kind of experiment: Antibacterial activity against Stenotrophomonas maltophilia MBS108 containing both chromosomally and plasmid encoded Smqnr gene by epsilon test.
Experiment [3] concerns Stenotrophomonas maltophilia. Kind of experiment: Antibacterial activity against Stenotrophomonas maltophilia D457 containing chromosomally encoded Smqnr gene by epsilon test.
Experiment [4] has as its system Stenotrophomonas maltophilia. Put plainly: Antibacterial activity against Stenotrophomonas maltophilia MBS109 containing chromosomally encoded Smqnr gene by epsilon test.
For experiment [5], the system named is Stenotrophomonas maltophilia. Kind of experiment: Antibacterial activity against Stenotrophomonas maltophilia MBS100 deficient in Smqnr gene by epsilon test.
Experiment [6] has as its system Stenotrophomonas maltophilia. Put plainly: Antibacterial activity against Stenotrophomonas maltophilia MBS82 deficient in Smqnr gene by epsilon test.

The structures appear in SMILES notation. Values after ≈ are worked out from the molar mass of the structure shown.

Usually MIC stands for the lowest concentration found to suppress growth. Consider `O=C(O)c1cn(C2CC2)c2cc(N3CCNCC3)c(F)cc2c1=O` [CIPROFLOXACIN], for which the MIC came to 2 µg/mL (≈ 6.04 µM) in experiment [1], 2 µg/mL (≈ 6.04 µM) in experiment [2], 0.75 µg/mL (≈ 2.26 µM) in experiment [3] and 0.75 µg/mL (≈ 2.26 µM) in experiment [4].
In the case of `COc1c(N2CCNC(C)C2)c(F)cc2c(=O)c(C(=O)O)cn(C3CC3)c12` (stereo not drawn) [GATIFLOXACIN], the MIC stood at 0.75 µg/mL (≈ 2 µM) in experiment [1]; 0.75 µg/mL (≈ 2 µM) in experiment [2]; 0.25 µg/mL (≈ 0.666 µM) in experiment [3]; 0.125 µg/mL (≈ 0.333 µM) in experiment [5]; 0.25 µg/mL (≈ 0.666 µM) in experiment [4]; 0.125 µg/mL (≈ 0.333 µM) in experiment [6].
On to `C[C@H]1COc2c(N3CCN(C)CC3)c(F)cc3c(=O)c(C(=O)O)cn1c23.C[C@H]1COc2c(N3CCN(C)CC3)c(F)cc3c(=O)c(C(=O)O)cn1c23.O` [LEVOFLOXACIN], for which the MIC in experiment [1] turned out to be 1 µg/mL; in experiment [2], 1 µg/mL; in experiment [3] it was 0.5 µg/mL; in experiment [5] it was 0.25 µg/mL; in experiment [4], 0.5 µg/mL; in experiment [6], 0.25 µg/mL.
`COc1c(N2C[C@@H]3CCCN[C@@H]3C2)c(F)cc2c(=O)c(C(=O)O)cn(C3CC3)c12` [MOXIFLOXACIN]: the MIC worked out at 0.75 µg/mL (≈ 1.87 µM) in experiment [1]; 0.75 µg/mL (≈ 1.87 µM) in experiment [2]; 0.19 µg/mL (≈ 0.473 µM) in experiment [3]; 0.064 µg/mL (≈ 0.159 µM) in experiment [5]; 0.19 µg/mL (≈ 0.473 µM) in experiment [4]; 0.064 µg/mL (≈ 0.159 µM) in experiment [6].
For `CC1COc2c(N3CCN(C)CC3)c(F)cc3c(=O)c(C(=O)O)cn1c23` (stereo not drawn) [OFLOXACIN], the MIC turned out to be 3 µg/mL (≈ 8.3 µM) in experiment [1]; 3 µg/mL (≈ 8.3 µM) in experiment [2]; 1 µg/mL (≈ 2.77 µM) in experiment [3]; 0.5 µg/mL (≈ 1.38 µM) in experiment [5]; 1 µg/mL (≈ 2.77 µM) in experiment [4]; 0.5 µg/mL (≈ 1.38 µM) in experiment [6].
